Measurements as given in patent US10201565B2, “Gas conditioning” (EndoSAT NV, priority 2010, dated 2019).
In brackets after ≈: the same amount, converted by molar mass. Several values for one entry are separate records, joined by “and”; a condition that tells them apart may be missing. Equal entries are not always repeated.

Assays:
adhesion formation [1] = details: laparoscopic mouse model, background; cited from earlier work
[2] = cited from earlier work; for solubilities: unit inferred
adhesion formation [3] = experiment: open abdomen for 60 min with gas flow deep in the pelvis, adhesions; assay type: in vivo; details: gas flow of 1 l/min deep in the pelvis; control group with a lesion only
adhesion formation [4] = details: 60 min pneumoperitoneum, 15 mmHg, humidified, 37° C.; scored one week later; average of four sites; listed as pure CO2
human patients = experiment: clinical trials of laparoscopy with conditioned pneumoperitoneum; assay type: in vivo; details: first trial, deep endometriosis surgery; trial group also 5 mg dexamethasone and hyalobarrier gel, humidification, cooling 30-32° C.
Experimental: In a further set of trials, human patients were treated operatively by laparoscopy using a pneumoperitoneum with 86% CO2, 10% of N2O and 4% of O2 in combination with full humidification and with a temperature maintained at 31° C. to 32° C. when entering the patient (conditioned group). Furthermore the peritoneal cavity was cooled to 30-32° C. using sprinkling of 2 ml/min of saline at room temperature and rinsing was performed using slightly heparinised saline. A comparison was made with a standard treatment, whereby a pneumoperitoneum with 100% CO2 was used (non-conditioned group). Flow rates were between 3 and 10 liter/min. In a first trial, patients were undergoing deep endometriosis surgery. The trial group received in addition 5 mg of dexamethasone and a hyalobarrier gel at the end of the procedure. […] A number of parameters were monitored such as postoperative pain, time to first flatus and time to first stools, and the CO2 resorbtion during pneumoperitoneum. […] In both trials CO2 resorbtion during surgery, postoperative pain assessed by VAS scales and pain killer intake and time to first flatus and time to first stools were monitored.
In both trials post operative pain was evaluated at 3 hours, 12 hours and daily for 4 days after surgery using a VAS scale (Visual Analog Pain Scale) and using the amount of pain killer intake. […]

O=C=O [CO2, carbon dioxide]
adhesion formation (adhesion formation [1]): increase adhesions five fold | solubility in water [2]: 1450 µg/mL (≈ 32.9 mM) | solubilities [2]: 1.45 g/L | adhesions after 60 min open abdomen (adhesion formation [3]): decrease of these adhesions | quantitative adhesion score (proportion of lesion covered by adhesions) (adhesion formation [4]): 70±10% and 74±9% and 77±9% | total adhesion score (sum of extent, type, tenacity) (adhesion formation [4]): 30±4 and 31±4 and 32±4 | adhesion formation checked by repeat laparoscopy (human patients): severe adhesions

[N-]=[N+]=O [N2O, nitrous oxide]
solubility in water [2]: 1500 µg/mL (≈ 34.1 mM) | solubilities [2]: 1.5 g/L

O=O [Oxygen, oxygen]
solubility in water [2]: 39.1 µg/mL (≈ 1.22 mM) | solubilities [2]: 0.0232 g/L
